Measurements as given in PubChem BioAssay AID330 (DTP/NCI, 2004).
Where “and” joins values, the source holds several entries; their conditions need not be identical. Equal entries are not always repeated. Inconclusive results and toxic doses are left out. The calls were made as follows: active = survival T/C of 150% or more; inactive = T/C below 125% in these data.

System: P388 leukemia ip, CD2F1 mice, survival T/C
Experiment: NCI In Vivo Anticancer Drug Screen. Data for tumor model P388 Leukemia (intraperitoneal) in CD2F1 (CDF1) mice
Conditions: endpoint: median survival time, higher = longer survival
Method in brief: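 Mice carrying the transplanted tumor received test compound or vehicle. Survival was recorded in each group, and the value is the treated-group measurement divided by that of the vehicle-treated control group.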

[1] = dose: 100.0 mg/kg/injection, schedule: Q04DX002 (ip), vehicle: saline with Tween-80
[2] = dose: 12.5 mg/kg/injection, schedule: Q01DX009 (ip), vehicle: saline
[3] = dose: 25.0 mg/kg/injection, schedule: Q01DX009 (ip), vehicle: saline with Tween-80
[4] = dose: 50.0 mg/kg/injection, schedule: Q01DX009 (ip), vehicle: saline
[5] = dose: 50.0 mg/kg/injection, schedule: Q01DX009 (ip), vehicle: Klucel (hydroxypropylcellulose) (HPC)
[6] = dose: 100.0 mg/kg/injection, schedule: Q01DX009 (ip), vehicle: Klucel (hydroxypropylcellulose) (HPC)
[7] = dose: 200.0 mg/kg/injection, schedule: Q01DX009 (ip), vehicle: Klucel (hydroxypropylcellulose) (HPC)
[8] = dose: 50.0 mg/kg/injection, schedule: Q01DX009 (ip), vehicle: saline with Tween-80
[9] = dose: 100.0 mg/kg/injection, schedule: Q01DX009 (ip), vehicle: saline with Tween-80
[10] = dose: 100.0 mg/kg/injection, schedule: Q01DX009 (ip), vehicle: saline
[11] = dose: 200.0 mg/kg/injection, schedule: Q01DX009 (ip), vehicle: saline
[12] = dose: 25.0 mg/kg/injection, schedule: Q01DX009 (ip), vehicle: saline
[13] = dose: 200.0 mg/kg/injection, schedule: Q01DX009 (ip), vehicle: saline with Tween-80
[14] = dose: 50.0 mg/kg/injection, schedule: Q01DX005 (ip), vehicle: Klucel (hydroxypropylcellulose) (HPC)
[15] = dose: 100.0 mg/kg/injection, schedule: Q01DX005 (ip), vehicle: Klucel (hydroxypropylcellulose) (HPC)
[16] = dose: 50.0 mg/kg/injection, schedule: Q01DX005 (ip), vehicle: saline with Tween-80
[17] = dose: 100.0 mg/kg/injection, schedule: Q01DX005 (ip), vehicle: saline with Tween-80
[18] = dose: 200.0 mg/kg/injection, schedule: Q01DX005 (ip), vehicle: saline with Tween-80

Measured: T/C

CC1CC2OC(=O)C(CN3CC3)C2CC2(C)C(O)CC(O)C12 (stereo not drawn)
inactive: dose: 25.0 mg/kg/injection, schedule: Q04DX002 (ip), vehicle: saline with Tween-80 108 % of control and 93 % of control | dose: 50.0 mg/kg/injection, schedule: Q04DX002 (ip), vehicle: saline with Tween-80 101 % of control and 113 % of control | [1] 102 % of control and 113 % of control

CC(=O)c1c(O)c(C)c(O)c2c1OC1=CC(=O)C(C(C)=O)C(=O)C12C (stereo not drawn)
inactive: dose: 6.25 mg/kg/injection, schedule: Q01DX009 (ip), vehicle: saline with Tween-80 100 % of control and 122 % of control | dose: 12.5 mg/kg/injection, schedule: Q01DX009 (ip), vehicle: saline with Tween-80 115 % of control and 97 % of control | [2] 97 % of control | [3] 101 % of control and 103 % of control (2×) | [4] 109 % of control and 111 % of control

CC1(C)OCC2OC(n3cnc4c(N)ncnc43)C(O)C2O1 (stereo not drawn)
inactive: dose: 25.0 mg/kg/injection, schedule: Q01DX009 (ip), vehicle: Klucel (hydroxypropylcellulose) (HPC) 111 % of control | [5] 111 % of control | [6] 111 % of control | [7] 97 % of control

CC(N)(CCC(=O)O)C(=O)O (stereo not drawn)
inactive: [5] 98 % of control | [6] 96 % of control | [7] 97 % of control | dose: 400.0 mg/kg/injection, schedule: Q01DX009 (ip), vehicle: Klucel (hydroxypropylcellulose) (HPC) 103 % of control

NC(CCC(=O)OCCn1c2ccccc2c2ccccc21)C(=O)O (stereo not drawn)
inactive: [3] 97 % of control | [8] 93 % of control | [9] 97 % of control

CC(/C=N\N=C(N)N)=N/NC(N)=O
inactive: [4] 92 % of control | [10] 108 % of control | [11] 115 % of control

CCC[CH2][GeH][CH2]CCC.CCC[CH2][Ge]([CH2]CCC)[CH2]CCC
inactive: [4] 98 % of control | [10] 88 % of control | [11] 98 % of control

CCCCCCCCCCCCCCCCCC(=O)Nc1ncc([N+](=O)[O-])s1
inactive: [5] 106 % of control | [6] 101 % of control | [7] 101 % of control

CCCC1CN2CCc3cc(OC)c(OC)cc3C2C/C1=C/C(=O)OCC (stereo not drawn)
inactive: [2] 90 % of control | [12] 92 % of control | [8] 90 % of control | [4] 96 % of control | [13] 89 % of control

CNc1ncnc2[nH]ncc12
inactive: [8] 100 % of control | dose: 200.0 mg/kg/injection, schedule: Q04DX003 (ip), vehicle: saline sonified 109 % of control

COC(=O)CCSC(=O)NC(C)C
inactive: [14] 99 % of control | [15] 102 % of control | dose: 200.0 mg/kg/injection, schedule: Q01DX005 (ip), vehicle: Klucel (hydroxypropylcellulose) (HPC) 100 % of control

CCCCCC1(O)OC(=O)C(C)=C1C (stereo not drawn)
inactive: dose: 12.5 mg/kg/injection, schedule: Q04DX003 (ip), vehicle: saline 100 % of control | dose: 25.0 mg/kg/injection, schedule: Q04DX003 (ip), vehicle: saline 100 % of control | dose: 50.0 mg/kg/injection, schedule: Q04DX003 (ip), vehicle: saline 122 % of control

CC(=O)OC1C(Br)C2CC1C1(Cl)C(=O)C(Cl)=C(Cl)C(=O)C21Cl (stereo not drawn)
inactive: [4] 99 % of control | [10] 101 % of control | [11] 99 % of control

O=C1CSC(c2ccc(Cl)cc2)N1c1ccc(N2C(=O)CSC2c2ccc(Cl)cc2)cc1 (stereo not drawn)
inactive: dose: 100.0 mg/kg/injection, schedule: Q01DX001 (ip), vehicle: saline with Tween-80 94 % of control | dose: 200.0 mg/kg/injection, schedule: Q01DX001 (ip), vehicle: saline with Tween-80 91 % of control | dose: 400.0 mg/kg/injection, schedule: Q01DX001 (ip), vehicle: saline with Tween-80 91 % of control

COc1ccc2c(c1OC)C(C(Cl)(Cl)Cl)N1CCc3cc4c(cc3C1=C2C=O)OCO4 (stereo not drawn)
inactive: [16] 98 % of control | [17] 90 % of control | [18] 90 % of control

O=C1CC2(CCc3ccccc32)C(=O)N1CCN1CCOCC1 (stereo not drawn)
inactive: [16] 100 % of control | [17] 95 % of control | [18] 105 % of control

O=c1c(N=Nc2ccccc2Cl)c(O)n(-c2ccc(Br)cc2)c(=S)n1-c1ccccc1
inactive: [1] 96 % of control | dose: 200.0 mg/kg/injection, schedule: Q04DX002 (ip), vehicle: saline with Tween-80 90 % of control | dose: 400.0 mg/kg/injection, schedule: Q04DX002 (ip), vehicle: saline with Tween-80 90 % of control

CCCCCCCCCCCCCC[N+]1(CC)CCCC1
inactive: dose: 6.25 mg/kg/injection, schedule: Q04DX002 (ip), vehicle: saline 119 % of control | dose: 12.5 mg/kg/injection, schedule: Q04DX002 (ip), vehicle: saline 86 % of control

c1ccc(SCCSCCSc2ccccc2)cc1
inactive: [8] 105 % of control | [9] 101 % of control | [13] 106 % of control

O=C1NC(CN2CCC(O)CC2)C(=O)NC1CN1CCC(O)CC1 (stereo not drawn)
inactive: [12] 100 % of control | [4] 100 % of control | [10] 98 % of control | [11] 97 % of control

O
inactive: dose: 0.01 % in 0.5 ml injection vol, schedule: Q01DX009 (ip), vehicle: water 92 % of control | dose: 0.02 % in 0.5 ml injection vol, schedule: Q01DX009 (ip), vehicle: water 100 % of control and 95 % of control | dose: 0.04 % in 0.5 ml injection vol, schedule: Q01DX009 (ip), vehicle: water 105 % of control | dose: 0.08 % in 0.5 ml injection vol, schedule: Q01DX009 (ip), vehicle: water 100 % of control | dose: 100.0 mg/kg/injection, schedule: Q01DX009 (ip), vehicle: acetone 95 % of control | dose: 200.0 mg/kg/injection, schedule: Q01DX009 (ip), vehicle: acetone 90 % of control | dose: 400.0 mg/kg/injection, schedule: Q01DX009 (ip), vehicle: acetone 100 % of control | dose: 1:0.5 dilution, schedule: Q01DX005 (ip), vehicle: none 112 % of control | dose: 1:1.0 dilution, schedule: Q01DX005 (ip), vehicle: none 100 % of control | dose: 1:2.0 dilution, schedule: Q01DX005 (ip), vehicle: none 114 % of control

CCCCCCCCCCCCCCCC[N+](C)(C)CC[S+](C)C
inactive: dose: 12.5 mg/kg/injection, schedule: Q01DX009 (ip), vehicle: water 96 % of control | dose: 25.0 mg/kg/injection, schedule: Q01DX009 (ip), vehicle: water 99 % of control | dose: 50.0 mg/kg/injection, schedule: Q01DX009 (ip), vehicle: water 100 % of control

O=C(Nc1cccc(Cl)c1)Nc1ccc(Sc2ccc(Cl)cc2)o1
inactive: [16] 97 % of control | [17] 88 % of control | [18] 92 % of control

CCCCN1C(=O)/C(=C/c2ccccc2OC)SC1=S
inactive: [14] 98 % of control | [15] 94 % of control
